The values that follow come from patent US11208412B2 (DAEGU-GYEONGBUK MEDICAL INNOVATION FOUNDATION, priority 2017, dated 2021).

Holding throughout (experiment): Kinase selectivity, DiscoverX scanMAX Kinase assay panel (% control)
Format in all cases: binding

The target in assay [1] is T1, kinases of the scanMAX Kinase assay panel (Homo sapiens, UniProt P07332).
T1 construct: purchased DiscoverX Co. (contract measurement) scanMAX Kinase assay panel
To be noted: FES; 1 uM. Summed up:
(§1)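 Read-out is % control, normalised so a positive-control compound sits at 0% and DMSO at 100%: (test − positive)/(negative − positive)×100. Each kinase received the compound at 1 uM in DMSO. A value below 35% counts as activity.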

Assay [2] addresses T2, kinases of the scanMAX Kinase assay panel (Homo sapiens, UniProt P48736).
T2 construct: purchased DiscoverX Co. (contract measurement) scanMAX Kinase assay panel
The note with it: PIK3CG; 1 uM. An outline of the steps: as §1

Assay [3] has as its target T3, kinases of the scanMAX Kinase assay panel (Homo sapiens, UniProt Q12866).
T3 construct: purchased DiscoverX Co. (contract measurement) scanMAX Kinase assay panel
T3 sequence (Q12866 21-999): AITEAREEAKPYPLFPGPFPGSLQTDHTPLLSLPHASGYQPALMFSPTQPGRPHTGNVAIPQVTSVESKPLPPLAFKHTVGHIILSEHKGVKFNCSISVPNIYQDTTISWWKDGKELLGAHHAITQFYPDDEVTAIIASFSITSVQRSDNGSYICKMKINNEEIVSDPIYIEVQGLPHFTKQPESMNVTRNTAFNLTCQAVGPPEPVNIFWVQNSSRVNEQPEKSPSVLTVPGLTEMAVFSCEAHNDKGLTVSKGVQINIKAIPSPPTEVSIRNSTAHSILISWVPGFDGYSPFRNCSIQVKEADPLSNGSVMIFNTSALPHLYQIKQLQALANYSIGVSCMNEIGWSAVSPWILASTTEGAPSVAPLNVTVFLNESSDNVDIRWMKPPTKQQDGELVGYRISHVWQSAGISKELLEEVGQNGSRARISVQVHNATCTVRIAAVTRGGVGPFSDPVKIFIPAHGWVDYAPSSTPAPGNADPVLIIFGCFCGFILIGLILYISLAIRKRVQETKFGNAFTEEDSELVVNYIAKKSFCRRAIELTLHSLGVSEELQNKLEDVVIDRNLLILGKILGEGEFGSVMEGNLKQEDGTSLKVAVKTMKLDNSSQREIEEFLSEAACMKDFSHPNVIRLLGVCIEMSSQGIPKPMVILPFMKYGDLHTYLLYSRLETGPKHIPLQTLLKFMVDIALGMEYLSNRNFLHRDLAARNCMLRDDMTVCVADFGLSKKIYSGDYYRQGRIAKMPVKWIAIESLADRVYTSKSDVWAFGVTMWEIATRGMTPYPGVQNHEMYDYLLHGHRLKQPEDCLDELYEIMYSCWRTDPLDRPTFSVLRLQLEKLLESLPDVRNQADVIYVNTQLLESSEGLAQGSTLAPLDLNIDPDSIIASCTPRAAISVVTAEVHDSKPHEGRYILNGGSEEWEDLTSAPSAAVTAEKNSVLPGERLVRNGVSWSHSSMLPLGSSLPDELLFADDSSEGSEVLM
To be noted: MERTK; 1 uM. Summed up:
as §1

In assay [4] the target is T4, kinases of the scanMAX Kinase assay panel (Homo sapiens, UniProt O75747).
T4 construct: purchased DiscoverX Co. (contract measurement) scanMAX Kinase assay panel
T4 sequence (O75747 1-1486): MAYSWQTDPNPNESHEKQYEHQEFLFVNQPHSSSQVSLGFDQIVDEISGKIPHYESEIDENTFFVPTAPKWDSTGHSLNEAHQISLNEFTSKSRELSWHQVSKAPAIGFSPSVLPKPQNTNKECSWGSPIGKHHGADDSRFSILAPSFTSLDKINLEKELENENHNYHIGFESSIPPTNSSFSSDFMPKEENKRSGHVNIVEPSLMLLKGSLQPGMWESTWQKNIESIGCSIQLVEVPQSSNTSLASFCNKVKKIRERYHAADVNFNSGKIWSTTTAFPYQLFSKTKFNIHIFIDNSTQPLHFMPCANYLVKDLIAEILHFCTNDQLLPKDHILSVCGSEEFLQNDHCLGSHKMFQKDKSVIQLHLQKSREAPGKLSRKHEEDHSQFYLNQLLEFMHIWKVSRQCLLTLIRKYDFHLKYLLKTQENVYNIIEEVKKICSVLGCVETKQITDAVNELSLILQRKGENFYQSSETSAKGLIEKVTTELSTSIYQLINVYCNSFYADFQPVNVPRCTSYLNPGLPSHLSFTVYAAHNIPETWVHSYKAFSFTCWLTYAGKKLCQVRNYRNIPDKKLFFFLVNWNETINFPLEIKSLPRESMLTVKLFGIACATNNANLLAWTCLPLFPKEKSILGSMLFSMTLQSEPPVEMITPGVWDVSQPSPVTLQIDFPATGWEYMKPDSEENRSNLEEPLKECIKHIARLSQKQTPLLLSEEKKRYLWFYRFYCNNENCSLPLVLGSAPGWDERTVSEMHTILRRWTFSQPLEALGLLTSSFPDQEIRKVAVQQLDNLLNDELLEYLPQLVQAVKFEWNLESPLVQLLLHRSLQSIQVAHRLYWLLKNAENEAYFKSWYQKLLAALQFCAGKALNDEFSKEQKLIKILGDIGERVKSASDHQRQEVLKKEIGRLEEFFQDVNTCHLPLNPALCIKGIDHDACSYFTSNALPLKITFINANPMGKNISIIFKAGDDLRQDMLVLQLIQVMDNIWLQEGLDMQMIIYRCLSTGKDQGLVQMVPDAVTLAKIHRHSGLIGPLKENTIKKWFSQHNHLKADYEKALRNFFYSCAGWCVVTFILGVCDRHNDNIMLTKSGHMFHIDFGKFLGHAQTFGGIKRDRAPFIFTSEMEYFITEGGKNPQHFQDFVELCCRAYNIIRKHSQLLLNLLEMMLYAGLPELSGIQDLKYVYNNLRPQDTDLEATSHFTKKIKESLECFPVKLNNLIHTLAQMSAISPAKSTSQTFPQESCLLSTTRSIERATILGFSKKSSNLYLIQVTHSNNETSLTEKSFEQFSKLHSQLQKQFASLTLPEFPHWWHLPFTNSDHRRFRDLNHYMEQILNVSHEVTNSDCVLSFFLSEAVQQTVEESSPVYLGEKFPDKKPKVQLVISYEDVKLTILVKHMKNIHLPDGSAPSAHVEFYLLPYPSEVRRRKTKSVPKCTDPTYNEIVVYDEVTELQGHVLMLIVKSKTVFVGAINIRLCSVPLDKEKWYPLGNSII
To be noted: PIK3C2G; 1 uM. Summed up:
as §1

The structures appear in SMILES notation.

T1 sequence (P07332 whole entry): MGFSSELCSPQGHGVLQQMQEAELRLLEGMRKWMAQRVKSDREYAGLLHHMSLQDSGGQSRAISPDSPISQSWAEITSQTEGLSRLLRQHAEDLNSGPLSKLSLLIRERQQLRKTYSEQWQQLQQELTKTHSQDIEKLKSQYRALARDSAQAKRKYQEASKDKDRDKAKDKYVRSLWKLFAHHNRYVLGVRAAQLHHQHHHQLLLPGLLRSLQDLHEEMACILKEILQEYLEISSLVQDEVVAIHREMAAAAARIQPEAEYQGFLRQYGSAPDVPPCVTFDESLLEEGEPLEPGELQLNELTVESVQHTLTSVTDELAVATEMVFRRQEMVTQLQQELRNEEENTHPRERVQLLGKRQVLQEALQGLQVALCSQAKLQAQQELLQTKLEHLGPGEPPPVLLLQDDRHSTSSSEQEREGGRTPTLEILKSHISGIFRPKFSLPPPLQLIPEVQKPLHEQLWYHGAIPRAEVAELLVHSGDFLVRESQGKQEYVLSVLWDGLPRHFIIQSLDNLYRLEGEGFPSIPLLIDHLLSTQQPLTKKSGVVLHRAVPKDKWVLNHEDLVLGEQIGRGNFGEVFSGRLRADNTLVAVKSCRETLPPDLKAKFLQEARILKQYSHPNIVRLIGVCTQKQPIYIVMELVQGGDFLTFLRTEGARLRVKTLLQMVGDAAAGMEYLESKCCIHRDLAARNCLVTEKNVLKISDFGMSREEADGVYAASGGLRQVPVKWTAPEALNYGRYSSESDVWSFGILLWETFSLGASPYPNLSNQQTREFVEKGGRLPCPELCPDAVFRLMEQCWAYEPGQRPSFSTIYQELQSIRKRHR
T2 sequence (P48736 whole entry): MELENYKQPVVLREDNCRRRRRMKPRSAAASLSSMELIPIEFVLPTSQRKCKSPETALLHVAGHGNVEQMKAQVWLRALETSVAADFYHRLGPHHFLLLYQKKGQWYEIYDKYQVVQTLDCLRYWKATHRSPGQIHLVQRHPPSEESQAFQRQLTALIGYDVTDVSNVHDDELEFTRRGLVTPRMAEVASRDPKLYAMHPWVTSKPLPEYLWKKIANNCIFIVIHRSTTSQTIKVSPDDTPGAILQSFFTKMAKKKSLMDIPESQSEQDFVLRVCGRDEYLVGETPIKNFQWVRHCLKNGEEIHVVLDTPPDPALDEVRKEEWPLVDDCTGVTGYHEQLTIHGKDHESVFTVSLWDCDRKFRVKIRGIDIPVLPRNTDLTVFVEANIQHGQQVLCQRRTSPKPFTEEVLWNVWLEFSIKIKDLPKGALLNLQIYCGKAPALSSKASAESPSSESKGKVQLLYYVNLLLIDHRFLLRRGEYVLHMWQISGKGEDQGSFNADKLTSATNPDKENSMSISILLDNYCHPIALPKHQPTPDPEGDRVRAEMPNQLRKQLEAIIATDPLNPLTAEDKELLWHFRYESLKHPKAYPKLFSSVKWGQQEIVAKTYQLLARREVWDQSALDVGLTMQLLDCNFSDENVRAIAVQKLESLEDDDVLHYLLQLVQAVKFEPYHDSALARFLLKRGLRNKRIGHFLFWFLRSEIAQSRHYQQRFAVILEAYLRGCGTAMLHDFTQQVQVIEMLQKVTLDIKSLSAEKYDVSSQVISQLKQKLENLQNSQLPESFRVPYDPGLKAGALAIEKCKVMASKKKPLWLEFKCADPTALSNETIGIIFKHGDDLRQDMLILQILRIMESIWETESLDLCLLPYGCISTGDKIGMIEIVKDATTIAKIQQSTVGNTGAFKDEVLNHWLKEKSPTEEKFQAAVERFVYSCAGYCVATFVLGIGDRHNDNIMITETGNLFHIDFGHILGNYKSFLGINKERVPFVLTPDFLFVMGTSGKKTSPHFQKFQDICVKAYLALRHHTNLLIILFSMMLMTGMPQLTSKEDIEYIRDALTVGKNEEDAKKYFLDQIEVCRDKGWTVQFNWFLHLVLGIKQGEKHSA

Consider `CC1(Nc2nc(Nc3cnn([C@H]4CCN(C5COC5)C[C@@H]4F)c3Cl)nc3[nH]cc(C#N)c23)CC1` [Example 52, 2-((5-chloro-1-((3S,4S)-3-fluoro-1-(oxetane-3-yl)piperidine-4-yl)-1H-pyrazole-4-yl)amino)((1-methylcyclopropyl)amino)-7H-pyrrolo[2,3-d]pyrimidine-5-carbonitrile], for which the remaining binding at 1 µM came to 1.3% in assay [1], 8.5% in assay [2], 0% in assay [3] and 72% in assay [4].

`CCNc1nc(Nc2ccc(C(=O)N3CCC(N4CCOCC4)CC3)cc2OC)nc2[nH]cc(C(F)(F)F)c12` [Example 104, (4-((4-(ethylamino)-5-(trifluoromethyl)-7H-pyrrolo[2,3-d]pyrimidine-2-yl)amino)-3-methoxyphenyl)(4-morpholinopiperidine-1-yl)methanone]: the remaining binding at 1 µM in assay [1] came out at 36%; in assay [2], 87%; in assay [3], 93%; in assay [4] it was 86%.

As to `CNc1nc(Nc2ccc(C(=O)N3CCOCC3)cc2OC)nc2[nH]cc(C#N)c12` [Example 1, 2-((2-methoxy-4-(morpholine-4-carbonyl)phenyl)amino)-4-(methylamino)-7H-pyrrolo[2,3-d]pyrimidine-5-carbonitrile], the remaining binding at 1 µM in assay [1] was determined as 61%; in assay [2], 76%; in assay [3], 96%; in assay [4], 99%.
